For one series, the system named is EBV lytic genes. Put plainly: EBV lytic gene induction in DOX-induced C17 dCas9-Tet-on-PUFa-p65HSF1 sgRNA cells. It is filed as cell-based, Epstein-Barr virus (EBV). As for the experimental part:
SNU-719, C666-1 and C17 (nasopharyngeal carcinoma) cancer cells stably expressing HA-dCas9-EGFP and BZLF1 sgRNA3 were modified to inducibly express 3×FLAG-PUFa-p65HSF1 using a Tetracycline response element (Tet-On).
dCas9-Tet on-p65HSF1-BZLF1sgRNA3 cell lines were produced as described previously. EBV reactivation, FACS, electrophoretic gel images, RT-PCR experiments, RNAscope in situ hybridization, growth proliferation assay and functional virion proliferation assay were conducted as described previously
Producing HA-dCas9-EGFP-Tet-on PUFa-p65HSF1-BZLF1 sgRNA3-BRLF1sgRNA3 cell line. The day prior to transfection, HEK-293FT cells were seeded into a 10 cm culture dish at 70% density. […]. At 6 hours post-transfection, medium was exchanged for fresh. At 48 hour post-transfection, 5 mL of medium containing the lentivirus was collected and centrifuged for 10 minutes at 2,000 rpm to remove cellular debris. The supernatant was filtered through a 0.45-micron filter (Millipore), and the lentivirus was collected. […]

A further series has as its system C666-1 cells. Put plainly: Growth proliferation, viability, apoptosis, cell cycle and clonogenic assays in C666-1 cells. Format: cell-based. The procedure:
(§1) Growth proliferation assay. SNU-719 HA-dCas9-Tet-on-PUFa-p65HSF1-BZLF1 gRNA (3) or C666-1 HA-dCas9-Tet-on-PUFa-p65HSF1-BZLF1 gRNA (A5) cells were seeded into individual wells of a 96-well plate for at 1×10^5 cells per well the day before being treated with 1 μg/mL DOX and Ganciclovir (GCV). Cells were counted with the cell counting kit-8 (CCK-8, Sigma) at day 6, day 7, and day 8 (FIGS. 8H-8I).
(§2) Active caspase-3 analysis. To detect the apoptosis in DOX treated dCas9-Tet on-p65HSF1-BZLF1sgRNA3 SNU719 and C17 cells, active caspase-3 apoptosis kit (BD Pharmingen #550914) was used. Untreated and treated cells were trypsinized and then fixed with fixation buffer in ice for 20 mins and washed with washing buffer twice. Cells were then stained with the PE conjugated rabbit anti active caspase-3 antibody in dark for 30 mins. Stained cells were collected with BD LSRFortessa.
(§3) Cell cycle analysis. After 96 hours from induction of DOX, dCas9-Tet on-p65HSF1-BZLF1sgRNA3 SNU719 and C17 cells were trypsinized and then fixed with 75% cold ethanol for 2 hrs at −20° C. Cells were washed three times with cold PBS and then resuspended in PBS containing 100 μg/mL RNase A and 10 μg/mL propidium iodide for 10 min at room temperature. Stained cells were collected with BD LSRFortessa.
(§4) Clonogenic assays. Cells were seeded at a density of 500 cells/well in 6-well plates the day before treatment. Then cells were stained with 0.5% crystal violet 14 days after treatment, and at least 50 cells were considered as a single colony

In another series the test system is SNU-719 cells. Put plainly: Growth proliferation, viability, apoptosis, cell cycle and clonogenic assays in SNU-719 cells. It is filed as cell-based. As for the experimental part: as §1, §2, §3, §4
The next series relates to C17 cells. Briefly: Growth proliferation, viability, apoptosis, cell cycle and clonogenic assays in C17 cells. Format: cell-based. The procedure: as §1, §2, §3, §4

In the case of “BZLF1 gRNA (A5): BZLF1 gRNA spacer sequence SEQ ID NO: 10, GAAACTATGCATGAGCCAC (chemistry not given here)”, the “expression of other EBV lytic genes including BRLF1 (Rta), BGLF4 (PK), BFRF3 (VCAp18), BMRF1, BdRF1 and BLLF1” value with EBV lytic genes (1 μg/mL DOX) is “induces the expression of other EBV lytic genes”. In addition, in the series on EBV lytic genes (1 μg/mL Doxycycline (DOX), Example 10), the “BZLF1 (Zta) reactivation” value is on record as “reactivated BZLF1 (Zta)”. The “cell cycle by flow cytometry” value is “sub G1 phase accumulation and S phase decrease” in the series on C666-1 cells (DOX induced, FIG. 17B); “sub G1 phase accumulation and S phase decrease” with SNU-719 cells (SNU719, DOX induced, FIG. 17B); “sub G1 phase accumulation and S phase decrease” in the series on C17 cells (DOX induced, FIG. 17B). Further, the “cell proliferation, apoptosis and growth of cells in vitro” value in the series on C666-1 cells (DOX-induced EBV reactivation) is “suppressed the cell proliferation, induced apoptosis, and slowed the growth of cells”; in the series on SNU-719 cells (SNU-719, DOX-induced EBV reactivation) it was “suppressed the cell proliferation, induced apoptosis, and slowed the growth of cells”; in the series with C17 cells (DOX-induced EBV reactivation), “suppressed the cell proliferation, induced apoptosis, and slowed the growth of cells”. The “slowing of growth rate of cells compared with cells treated with ganciclovir (GCV) alone” value is reported as “greater than 4 fold” with C666-1 cells (EBV reactivation, FIGS. 3B, 6A, 8H) and “greater than 4 fold” in the series on SNU-719 cells (SNU-719, EBV reactivation by 1 μg/mL DOX, FIG. 8I). Also, the “decrease of C666-1 cell viability relative to control” value in the series with C666-1 cells (FIG. 6B, 120 hours following treatment) is on record as 50-70%. The monolayer colony formation entry in the series with C666-1 cells (after DOX induction, FIG. 17E) is recorded as “dramatic suppression”; in the series on SNU-719 cells (SNU719, after DOX induction, FIG. 17E) it was “dramatic suppression”; in the series with C17 cells (after DOX induction, FIG. 17E) it was “dramatic suppression”.
